Values of other authors in patent US11717525B2, “Transdermal and/or topical delivery system comprising clobazam” (Alpha to Omega Pharmaceutical Consultants, Inc., priority 2015, dated 2023).

Legend:
[1] = oral administration
[2] = lipophilic in nature
[3] = 25° C., practically insoluble

Compound: CN1C(=O)CC(=O)N(c2ccccc2)c2cc(Cl)ccc21 [Clobazam]
- absorbed when taken orally [1]: 87%
- Log P [2]: around 2.1
- solubility in water [3]: 70 microgram/ml (μg/ml)
